Reference: patent publication US20080009418A1, “Selective Inhibitors” (Alchemia LTD., priority 2004, published 2008)

Tests used:
Human neurokinin (NK1) = target: T1, Human neurokinin (NK1) (Homo sapiens, UniProt P25103); experiment: Radioligand binding, human neurokinin NK1 membranes, filtration, [125I]-Substance P; conditions: compound at 10 μM; [125I]-Substance P, human NK1 membranes
T1 construct: purchased Perkin Elmer Biosignal
Method in brief: (§1)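 Percent inhibition of radioligand binding measured on recombinant human membranes: NK1 with [125I]-Substance P, KOP with [3H]-Diprenorphine. Incubation 1 h at room temperature, then harvest onto 0.3% PEI-soaked filters, cold Tris-HCl pH 7.4 washes and scintillation counting; non-specific binding from reference ligand wells.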

[1] = target: T2, Human melanin-concentrating hormone (MCH1) (Homo sapiens, UniProt Q99705); experiment: Radioligand binding, human melanin-concentrating hormone MCH1 membranes, FlashPlate, [125I]-S36057; conditions: compound at 10 μM; [125I]-S36057, human MCH1 membranes
T2 construct: purchased Perkin Elmer Biosignal
T2 sequence (Q99705 whole entry): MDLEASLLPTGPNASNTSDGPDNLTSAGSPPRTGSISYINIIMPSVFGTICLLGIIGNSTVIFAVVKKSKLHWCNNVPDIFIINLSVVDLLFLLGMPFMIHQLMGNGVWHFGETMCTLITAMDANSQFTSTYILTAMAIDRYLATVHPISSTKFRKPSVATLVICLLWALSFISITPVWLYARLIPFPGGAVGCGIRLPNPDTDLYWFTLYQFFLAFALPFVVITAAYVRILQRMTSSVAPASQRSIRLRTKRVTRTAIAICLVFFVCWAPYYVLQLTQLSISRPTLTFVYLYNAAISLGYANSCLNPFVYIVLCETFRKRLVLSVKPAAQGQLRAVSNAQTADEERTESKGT
Method in brief: (§2)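 Cloned human receptor membranes were coated onto FlashPlate wells and incubated with radioligand and compound (added from a 0.5 mM DMSO daughter plate) for 1 hour at room temperature in the dark. Scintillation counting gave percent inhibition, with DMSO defining total and reference ligand defining non-specific binding.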

Human κ-Opioid (KOP) = target: T3, Human κ-Opioid (KOP) (Homo sapiens, UniProt P41145); experiment: Radioligand binding, human κ-opioid (KOP) membranes, filtration, [3H]-Diprenorphine; conditions: compound at 10 μM; [3H]-Diprenorphine, human KOP membranes
T3 construct: purchased Perkin Elmer Biosignal
T3 sequence (P41145 whole entry): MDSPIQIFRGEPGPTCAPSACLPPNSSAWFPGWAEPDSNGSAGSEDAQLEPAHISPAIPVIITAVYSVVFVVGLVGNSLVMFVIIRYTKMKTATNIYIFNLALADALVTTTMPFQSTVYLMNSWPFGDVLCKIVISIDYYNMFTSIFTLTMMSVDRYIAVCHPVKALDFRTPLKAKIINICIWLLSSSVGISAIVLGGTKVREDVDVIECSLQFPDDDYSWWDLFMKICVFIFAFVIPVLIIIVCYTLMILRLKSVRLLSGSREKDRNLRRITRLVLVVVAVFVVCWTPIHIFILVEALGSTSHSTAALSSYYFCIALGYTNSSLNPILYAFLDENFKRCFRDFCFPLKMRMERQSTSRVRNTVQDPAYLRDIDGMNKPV
Method in brief: as §1

Human μ-opioid (MOP) = target: T4, Human μ-opioid (MOP) (Homo sapiens, UniProt P35372); experiment: Radioligand binding, human μ-opioid (MOP) membranes, FlashPlate, [3H]-Naloxone; conditions: compound at 10 μM; [3H]-Naloxone, human MOP membranes
T4 construct: purchased Perkin Elmer Biosignal
T4 sequence (P35372 whole entry): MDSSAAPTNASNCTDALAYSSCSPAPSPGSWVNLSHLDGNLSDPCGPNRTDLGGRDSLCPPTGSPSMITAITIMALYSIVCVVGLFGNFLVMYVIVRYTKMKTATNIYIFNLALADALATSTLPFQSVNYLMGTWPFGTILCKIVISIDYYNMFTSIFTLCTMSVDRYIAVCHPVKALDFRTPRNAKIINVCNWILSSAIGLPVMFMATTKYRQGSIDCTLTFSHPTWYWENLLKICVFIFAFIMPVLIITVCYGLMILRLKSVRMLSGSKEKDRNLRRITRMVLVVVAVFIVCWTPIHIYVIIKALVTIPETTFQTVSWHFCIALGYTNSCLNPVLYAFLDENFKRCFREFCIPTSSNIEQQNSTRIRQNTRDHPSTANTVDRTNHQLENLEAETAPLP
Method in brief: as §2

Human Melanocortin (MC4) = target: T5, Human Melanocortin (MC4) (Homo sapiens, UniProt P32245); experiment: Radioligand binding, human melanocortin MC4 membranes, FlashPlate, [125I]-NDP-αMSH; conditions: compound at 10 μM; [125I]-NDP-αMSH, human MC4 membranes
T5 construct: purchased Perkin Elmer Biosignal
T5 sequence (P32245 whole entry): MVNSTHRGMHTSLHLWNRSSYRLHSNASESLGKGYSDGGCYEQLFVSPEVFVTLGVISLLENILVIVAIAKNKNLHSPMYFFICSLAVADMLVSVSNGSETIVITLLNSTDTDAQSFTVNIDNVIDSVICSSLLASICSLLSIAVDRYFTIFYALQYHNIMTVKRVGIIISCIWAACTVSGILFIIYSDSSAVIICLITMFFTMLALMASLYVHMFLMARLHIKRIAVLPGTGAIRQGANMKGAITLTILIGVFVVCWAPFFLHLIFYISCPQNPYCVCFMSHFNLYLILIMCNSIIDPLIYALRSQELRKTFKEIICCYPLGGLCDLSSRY
Method in brief: as §2

Human melanocortin (MC5) = target: T6, Human melanocortin (MC5) (Homo sapiens, UniProt P33032); experiment: Radioligand binding, human melanocortin MC5 membranes, FlashPlate, [125I]-NDP-αMSH; conditions: compound at 10 μM; [125I]-NDP-αMSH, human MC5 membranes
T6 construct: purchased Perkin Elmer Biosignal
T6 sequence (P33032 whole entry): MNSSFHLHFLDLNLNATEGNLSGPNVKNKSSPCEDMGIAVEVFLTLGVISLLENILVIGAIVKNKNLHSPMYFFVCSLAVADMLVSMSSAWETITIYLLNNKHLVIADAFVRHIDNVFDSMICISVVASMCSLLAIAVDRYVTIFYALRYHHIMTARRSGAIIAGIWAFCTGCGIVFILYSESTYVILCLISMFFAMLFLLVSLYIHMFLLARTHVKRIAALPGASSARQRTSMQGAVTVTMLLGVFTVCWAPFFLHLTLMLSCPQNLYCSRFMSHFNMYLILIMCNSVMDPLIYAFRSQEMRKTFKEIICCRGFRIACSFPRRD
Method in brief: as §2

Human Melanocortin (MC3) = target: T7, Human Melanocortin (MC3) (Homo sapiens, UniProt P41968); experiment: Radioligand binding, human melanocortin MC3 membranes, FlashPlate, [125I]-NDP-αMSH; conditions: compound at 10 μM; [125I]-NDP-αMSH, human MC3 membranes
T7 construct: purchased Perkin Elmer Biosignal
T7 sequence (P41968 whole entry): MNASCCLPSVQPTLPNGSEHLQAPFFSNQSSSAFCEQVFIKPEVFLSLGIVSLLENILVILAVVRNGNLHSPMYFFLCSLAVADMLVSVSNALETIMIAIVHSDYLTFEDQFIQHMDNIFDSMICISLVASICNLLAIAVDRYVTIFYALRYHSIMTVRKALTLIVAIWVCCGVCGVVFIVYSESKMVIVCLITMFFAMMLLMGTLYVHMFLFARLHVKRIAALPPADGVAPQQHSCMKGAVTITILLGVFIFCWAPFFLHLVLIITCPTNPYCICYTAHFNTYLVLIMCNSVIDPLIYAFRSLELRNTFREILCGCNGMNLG
Method in brief: as §2

Mouse urotensin (mUR2) = target: T8, Mouse urotensin (mUR2) (Mus musculus, UniProt Q8VIH9); experiment: Radioligand binding, mouse urotensin mUR2 membranes, FlashPlate, [125I]-Urotensin II; conditions: compound at 10 μM; [125I]-Urotensin II, mouse mUR2 membranes
T8 construct: purchased Perkin Elmer Biosignal
T8 sequence (Q8VIH9 1-385): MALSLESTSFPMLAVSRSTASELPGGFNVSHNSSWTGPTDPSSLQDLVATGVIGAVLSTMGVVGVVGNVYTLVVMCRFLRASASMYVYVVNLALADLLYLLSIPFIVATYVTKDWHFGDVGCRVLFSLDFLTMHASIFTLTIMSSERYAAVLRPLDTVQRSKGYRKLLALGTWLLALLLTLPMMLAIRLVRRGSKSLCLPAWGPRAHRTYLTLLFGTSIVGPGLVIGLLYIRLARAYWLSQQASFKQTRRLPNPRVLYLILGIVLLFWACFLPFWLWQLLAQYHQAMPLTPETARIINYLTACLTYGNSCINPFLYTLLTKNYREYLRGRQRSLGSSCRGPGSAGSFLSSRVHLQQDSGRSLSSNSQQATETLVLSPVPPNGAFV
Method in brief: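 Cloned mouse urotensin (mUR2) receptor membranes from Perkin Elmer Biosignal were immobilized in FlashPlate microplates using a proprietary coating. Each well got 19.5 μl buffer, then 0.5 μl of DMSO, reference ligand, or compound. Adding 5 μl of [125I]-Urotensin II, diluted to 5× final concentration in binding buffer, started binding. Plates were sealed with TopSeal-A and incubated 1 hour at room temperature in the dark. Wells were counted for 30 seconds each on a TopCount after a 60-second delay, and percentage inhibition was calculated.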

Human δ-opioid (DOP) = target: T9, Human δ-opioid (DOP) (Homo sapiens, UniProt P41143); experiment: Radioligand binding, human δ-opioid (DOP) membranes, FlashPlate, [3H]-Bremazocine; conditions: compound at 10 μM; [3H]-Bremazocine, human DOP membranes
T9 construct: purchased Perkin Elmer Biosignal
T9 sequence (P41143 whole entry): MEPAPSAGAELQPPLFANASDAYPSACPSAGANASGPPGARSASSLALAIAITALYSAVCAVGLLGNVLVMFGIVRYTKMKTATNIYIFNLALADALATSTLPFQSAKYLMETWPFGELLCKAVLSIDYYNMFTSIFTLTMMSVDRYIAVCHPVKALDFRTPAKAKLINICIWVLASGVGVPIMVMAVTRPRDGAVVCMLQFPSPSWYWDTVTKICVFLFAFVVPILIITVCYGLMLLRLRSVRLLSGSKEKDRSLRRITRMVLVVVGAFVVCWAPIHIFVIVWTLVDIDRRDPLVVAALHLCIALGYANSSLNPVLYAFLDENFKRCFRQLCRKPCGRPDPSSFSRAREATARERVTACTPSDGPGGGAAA
Method in brief: as §2

Human opioid (ORL1) = target: T10, Human opioid (ORL1) (Homo sapiens, UniProt P41146); experiment: Radioligand binding, human opioid ORL1 membranes, FlashPlate, [125I]-Nociceptin; conditions: compound at 10 μM; [125I]-Nociceptin, human ORL1 membranes
T10 construct: purchased Perkin Elmer Biosignal
T10 sequence (P41146 whole entry): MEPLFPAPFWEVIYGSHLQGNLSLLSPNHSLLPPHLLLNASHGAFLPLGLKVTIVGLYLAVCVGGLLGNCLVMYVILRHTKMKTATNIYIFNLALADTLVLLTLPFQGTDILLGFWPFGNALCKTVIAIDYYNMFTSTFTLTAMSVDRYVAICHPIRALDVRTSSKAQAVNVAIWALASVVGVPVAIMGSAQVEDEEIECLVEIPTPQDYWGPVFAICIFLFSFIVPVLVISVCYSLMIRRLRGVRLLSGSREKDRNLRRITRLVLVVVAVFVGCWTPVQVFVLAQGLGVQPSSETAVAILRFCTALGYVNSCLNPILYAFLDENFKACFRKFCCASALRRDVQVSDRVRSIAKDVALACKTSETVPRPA
Method in brief: as §2

[2] = target: T11, Human neuropeptide Y (NPY-Y1) (Homo sapiens, UniProt P25929); experiment: Radioligand binding, human neuropeptide Y NPY-Y1 membranes, FlashPlate, [125I]-PYY; conditions: compound at 10 μM; [125I]-PYY, human NPY-Y1 membranes
T11 construct: purchased Perkin Elmer Biosignal
T11 sequence (P25929 1-384): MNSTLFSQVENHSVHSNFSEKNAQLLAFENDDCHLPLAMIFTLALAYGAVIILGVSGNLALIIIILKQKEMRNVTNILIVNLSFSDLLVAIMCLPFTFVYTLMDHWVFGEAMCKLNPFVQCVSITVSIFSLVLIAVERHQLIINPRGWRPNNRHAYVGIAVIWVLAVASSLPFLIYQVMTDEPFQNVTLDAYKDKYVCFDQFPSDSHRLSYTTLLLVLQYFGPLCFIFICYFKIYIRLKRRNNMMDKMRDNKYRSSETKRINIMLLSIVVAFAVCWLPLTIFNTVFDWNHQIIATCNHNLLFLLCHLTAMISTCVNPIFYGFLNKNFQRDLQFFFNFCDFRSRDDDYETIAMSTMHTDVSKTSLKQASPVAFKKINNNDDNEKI
Method in brief: as §2

T1 sequence (P25103 whole entry): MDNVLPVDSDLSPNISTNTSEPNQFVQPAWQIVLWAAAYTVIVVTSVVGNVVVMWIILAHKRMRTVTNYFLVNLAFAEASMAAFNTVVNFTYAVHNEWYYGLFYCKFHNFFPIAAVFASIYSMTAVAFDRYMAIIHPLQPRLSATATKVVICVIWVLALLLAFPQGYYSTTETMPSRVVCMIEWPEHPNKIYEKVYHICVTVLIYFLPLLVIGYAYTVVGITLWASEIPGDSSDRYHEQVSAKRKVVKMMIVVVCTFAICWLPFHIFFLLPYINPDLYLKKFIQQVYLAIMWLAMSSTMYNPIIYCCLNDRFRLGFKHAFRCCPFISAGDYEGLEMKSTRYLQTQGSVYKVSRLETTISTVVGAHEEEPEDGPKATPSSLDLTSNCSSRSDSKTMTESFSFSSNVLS

Compound	A8: inhibition of radioligand binding (Human neurokinin (NK1))	A6: inhibition of radioligand binding [1]	A2: inhibition of radioligand binding (Human κ-Opioid (KOP))	A7: inhibition of radioligand binding (Human μ-opioid (MOP))	A4: inhibition of radioligand binding (Human Melanocortin (MC4))	A5: inhibition of radioligand binding (Human melanocortin (MC5))	A3: inhibition of radioligand binding (Human Melanocortin (MC3))	A11: inhibition of radioligand binding (Mouse urotensin (mUR2))	A1: inhibition of radioligand binding (Human δ-opioid (DOP))	A10: inhibition of radioligand binding (Human opioid (ORL1))	A9: inhibition of radioligand binding [2]
N=C(N)NCC(=O)NC1C(OCc2ccc(Cl)cc2)OC(COCc2ccc(Cl)cc2)C(O)C1OCc1ccc2ccccc2c1 (stereo not shown) [compound 422]	+ (“+” indicates greater than 50% inhibition at 10 μM)	+ (“+” indicates greater than 50% inhibition at 10 μM)	− (“−” indicates less than 50% inhibition at 10 μM)	− (“−” indicates less than 50% inhibition at 10 μM)	+ (“+” indicates greater than 50% inhibition at 10 μM)	+ (“+” indicates greater than 50% inhibition at 10 μM)	+ (“+” indicates greater than 50% inhibition at 10 μM)	− (“−” indicates less than 50% inhibition at 10 μM)	− (“−” indicates less than 50% inhibition at 10 μM)	+ (“+” indicates greater than 50% inhibition at 10 μM)	− (“−” indicates less than 50% inhibition at 10 μM)
N=C(N)NCC(=O)NC1C(OCc2ccc(Cl)cc2)OC(COCc2ccc3ccccc3c2)C(O)C1OCc1ccc(-c2ccccc2)cc1 (stereo not shown) [compound 423]	+ (“+” indicates greater than 50% inhibition at 10 μM)	− (“−” indicates less than 50% inhibition at 10 μM)	− (“−” indicates less than 50% inhibition at 10 μM)	− (“−” indicates less than 50% inhibition at 10 μM)	+ (“+” indicates greater than 50% inhibition at 10 μM)	+ (“+” indicates greater than 50% inhibition at 10 μM)	+ (“+” indicates greater than 50% inhibition at 10 μM)	− (“−” indicates less than 50% inhibition at 10 μM)	− (“−” indicates less than 50% inhibition at 10 μM)	+ (“+” indicates greater than 50% inhibition at 10 μM)	− (“−” indicates less than 50% inhibition at 10 μM)
N=C(N)NCC(=O)NC1C(OCc2ccc(Cl)cc2)OC(COCc2ccccc2)C(O)C1OCc1ccc(-c2ccccc2)cc1 (stereo not shown) [compound 424]	+ (“+” indicates greater than 50% inhibition at 10 μM)	− (“−” indicates less than 50% inhibition at 10 μM)	− (“−” indicates less than 50% inhibition at 10 μM)	− (“−” indicates less than 50% inhibition at 10 μM)	+ (“+” indicates greater than 50% inhibition at 10 μM)	+ (“+” indicates greater than 50% inhibition at 10 μM)	+ (“+” indicates greater than 50% inhibition at 10 μM)	− (“−” indicates less than 50% inhibition at 10 μM)	− (“−” indicates less than 50% inhibition at 10 μM)	− (“−” indicates less than 50% inhibition at 10 μM)	− (“−” indicates less than 50% inhibition at 10 μM)
N=C(N)NCC(=O)NC1C(OCc2ccc(Cl)cc2)OC(COCc2ccc(Cl)cc2)C(O)C1OCc1ccc(-c2ccccc2)cc1 (stereo not shown) [compound 425]	+ (“+” indicates greater than 50% inhibition at 10 μM)	+ (“+” indicates greater than 50% inhibition at 10 μM)	− (“−” indicates less than 50% inhibition at 10 μM)	− (“−” indicates less than 50% inhibition at 10 μM)	+ (“+” indicates greater than 50% inhibition at 10 μM)	+ (“+” indicates greater than 50% inhibition at 10 μM)	+ (“+” indicates greater than 50% inhibition at 10 μM)	− (“−” indicates less than 50% inhibition at 10 μM)	− (“−” indicates less than 50% inhibition at 10 μM)	+ (“+” indicates greater than 50% inhibition at 10 μM)	− (“−” indicates less than 50% inhibition at 10 μM)
N=C(N)NCCC(=O)NC1C(OCc2ccc(Cl)cc2)OC(COCc2ccc3ccccc3c2)C(O)C1OCc1ccc(Cl)cc1 (stereo not shown) [compound 426]	+ (“+” indicates greater than 50% inhibition at 10 μM)	+ (“+” indicates greater than 50% inhibition at 10 μM)	− (“−” indicates less than 50% inhibition at 10 μM)	− (“−” indicates less than 50% inhibition at 10 μM)	+ (“+” indicates greater than 50% inhibition at 10 μM)	+ (“+” indicates greater than 50% inhibition at 10 μM)	+ (“+” indicates greater than 50% inhibition at 10 μM)	− (“−” indicates less than 50% inhibition at 10 μM)	− (“−” indicates less than 50% inhibition at 10 μM)	+ (“+” indicates greater than 50% inhibition at 10 μM)	+ (“+” indicates greater than 50% inhibition at 10 μM)
